Results published in patent US11485987B2, “Methods for inducing bioorthogonal reactivity” (University of Delaware, priority 2015, dated 2022).

Assay: FeCl2 catalyzed oxidation of a dihydrotetrazine in the presence of H2O2
Conditions: DHTz 100 μM, 1 mM H2O2, FeCl2 0.05 mM, deionized water
Experimental: N′-Boc PEG10 dipyridyl-dihydrotetrazine was dissolved in deionized water containing 1 mM H2O2 to give a final DHTz concentration of 100 μM. The UV absorbance at 330 nm wavelength was monitored over 10 min. Then a 5 mM FeCl2 stock solution was added and mixed quickly to get a final FeCl2 concentration of 0.05 mM., followed by continuous monitoring of UV absorbance at 330 nm over 10 min. Oxidation was rapid and complete within ˜1 minute.

CC(C)(C)OC(=O)NCCOCCOCCOCCOCCOCCOCCOCCOCCOCCOCCOCCNC(=O)CCCC(=O)Nc1ccc(C2=NNC(c3ccccn3)=NN2)nc1 [N′-Boc PEG10 dipyridyl-dihydrotetrazine]
time to complete oxidation: ~1 min
